Results on 38 molecules are retold here after US8158792B2, “Spiropiperidines for use as tryptase inhibitors” (Janssen Pharmaceutica N.V., priority 2007, dated 2012).

In the test the target is human lung tryptase. In words: β-Tryptase In-Vitro Enzyme Assay. The test is classed as biochemical. The following applies: human lung tryptase 1 nM, substrate H-D-HHT-Ala-Arg-pNa 500 μM, pH 7.4, room temperature. The procedure: The β-tryptase assay was conducted with human lung tryptase (Cortex Biochem #CP3033) in an aqueous buffer (10 mM Tris, 10 mM Hepes, 150 mM NaCl, 0.1% PEG 8000, pH 7.4) using the chromogenic substrate H-D-HHT-Ala-Arg-pNa. […] Percent inhibition was calculated by comparing the initial reaction velocity of samples without inhibitor to those with inhibitor. The initial reaction velocities were analyzed using Microsoft Excel.

In turn, `NCc1ccc2c(c1)C1(CCN(C(=O)c3ccc(OCc4ccccc4)cc3)CC1)CO2` [Cpd 76, 1-(4-benzyloxy-phenyl)carbonyl-5′-aminomethyl-spiro[piperidine-4,3′-(2H)-benzo[b]furan]] displayed an IC50 of 420 nM.

`NCc1ccc2c(c1)C1(CCN(C(=O)c3ccc(/C=C\c4ccccc4)o3)CC1)CO2` [Cpd 77, (Z)-1-(5-phenylethenyl-furan-2-yl)carbonyl-5′-aminomethyl-spiro[piperidine-4,3′-(2H)-benzo[b]furan]] came in with a 50% inhibitory concentration (IC50) of 100 nM.

In the case of `NCc1ccc2c(c1)C1(CCN(C(=O)Cc3ccccc3)CC1)CO2` [Cpd 78, 1-benzylcarbonyl-5′-aminomethyl-spiro[piperidine-4,3′-(2H)-benzo[b]furan]], the IC50 is 1400 nM. Molecule `NCc1ccc2c(c1)C1(CCN(C(=O)CCc3ccccc3)CC1)CO2` [Cpd 79, 1-phenethylcarbonyl-5′-aminomethyl-spiro[piperidine-4,3′-(2H)-benzo[b]furan]] gave a half-inhibitory concentration (IC50) of 1400 nM. Molecule `NCc1ccc2c(c1)C1(CCN(C(=O)Cc3cccc(F)c3)CC1)CO2` [Cpd 80, 1-(3-fluoro-benzyl)carbonyl-5′-aminomethyl-spiro[piperidine-4,3′-(2H)-benzo[b]furan]] came in with an IC50 of 2700 nM.

`NCc1ccc2c(c1)C1(CCN(C(=O)Cc3cccc(Cl)c3)CC1)CO2` [Cpd 81, 1-(3-chloro-benzyl)carbonyl-5′-aminomethyl-spiro[piperidine-4,3′-(2H)-benzo[b]furan]] showed a half-maximal inhibitory concentration (IC50) of 2300 nM. This IC50 and that of the molecule before are within 1.5-fold of each other. As for `NCc1ccc2c(c1)C1(CCN(C(=O)Cc3ccc(F)c(F)c3)CC1)CO2` [Cpd 82, 1-(3,4-difluoro-benzyl)carbonyl-5′-aminomethyl-spiro[piperidine-4,3′-(2H)-benzo[b]furan]], the figure is 1300 nM; as for `NCc1ccc2c(c1)C1(CCN(C(=O)CCc3cccc(Cl)c3)CC1)CO2` [Cpd 83, 1-(3-chloro-phenethyl)carbonyl-5′-aminomethyl-spiro[piperidine-4,3′-(2H)-benzo[b]furan]], 4300 nM. For `NCc1ccc2c(c1)C1(CCN(C(=O)Cc3ccc4ccccc4c3)CC1)CO2` [Cpd 84, 1-naphthalen-2-ylmethylcarbonyl-5′-aminomethyl-spiro[piperidine-4,3′-(2H)-benzo[b]furan]] the value was 1400 nM; for `NCc1ccc2c(c1)C1(CCN(C(=O)Cc3cccc(C(F)(F)F)c3)CC1)CO2` [Cpd 85, 1-(3-trifluoromethyl-benzyl)carbonyl-5′-aminomethyl-spiro[piperidine-4,3′-(2H)-benzo[b]furan]], 2700 nM; for `NCc1ccc2c(c1)C1(CCN(C(=O)Cc3ccc(Cl)c(Cl)c3)CC1)CO2` [Cpd 86, 1-(3,4-dichloro-benzyl)carbonyl-5′-aminomethyl-spiro[piperidine-4,3′-(2H)-benzo[b]furan]], 620 nM. The molecule `NCc1ccc2c(c1)C1(CCN(C(=O)Cc3cccc(Br)c3)CC1)CO2` [Cpd 87, 1-(3-bromo-benzyl)carbonyl-5′-aminomethyl-spiro[piperidine-4,3′-(2H)-benzo[b]furan]] displayed a 50% inhibitory concentration (IC50) of 1700 nM. This IC50 lies about 2.7-fold higher than the previous one.

`NCc1ccc2c(c1)C1(CCN(C(=O)Cc3cccc(Oc4ccccc4)c3)CC1)CO2` [Cpd 88, 1-(3-phenoxy-benzyl)carbonyl-5′-aminomethyl-spiro[piperidine-4,3′-(2H)-benzo[b]furan]] showed an IC50 of 26 nM.

The molecule `Cc1cccc(CC(=O)N2CCC3(CC2)COc2ccc(CN)cc23)c1` [Cpd 89, 1-(3-methyl-benzyl)carbonyl-5′-aminomethyl-spiro[piperidine-4,3′-(2H)-benzo[b]furan]] yielded an IC50 of 1400 nM. As for `NCc1ccc2c(c1)C1(CCN(C(=O)Cc3ccc(F)cc3)CC1)CO2` [Cpd 90, 1-(4-fluoro-benzyl)carbonyl-5′-aminomethyl-spiro[piperidine-4,3′-(2H)-benzo[b]furan]], the figure is 980 nM; as for `NCc1ccc2c(c1)C1(CCN(C(=O)Cc3ccc(Cl)cc3)CC1)CO2` [Cpd 91, 1-(4-chloro-benzyl)carbonyl-5′-aminomethyl-spiro[piperidine-4,3′-(2H)-benzo[b]furan]], 480 nM; as for `NCc1ccc2c(c1)C1(CCN(C(=O)Cc3ccc(-c4ccccc4)cc3)CC1)CO2` [Cpd 92, 1-(4-phenyl-benzyl)carbonyl-5′-aminomethyl-spiro[piperidine-4,3′-(2H)-benzo[b]furan]], 490 nM. For `NCc1ccc2c(c1)C1(CCN(C(=O)Cc3ccc(Br)cc3)CC1)CO2` [Cpd 93, 1-(4-bromo-benzyl)carbonyl-5′-aminomethyl-spiro[piperidine-4,3′-(2H)-benzo[b]furan]] the value was 350 nM. Molecule `COc1ccc(CC(=O)N2CCC3(CC2)COc2ccc(CN)cc23)cc1` [Cpd 94, 1-(4-methoxy-benzyl)carbonyl-5′-aminomethyl-spiro[piperidine-4,3′-(2H)-benzo[b]furan]] came in with a half-inhibitory concentration (IC50) of 240 nM. As for `NCc1ccc2c(c1)C1(CCN(C(=O)Cc3cccc(Br)c3)CC1)CO2` [Cpd 95, 1-(3-bromo-benzyl)carbonyl-5′-aminomethyl-spiro[piperidine-4,3′-(2H)-benzo[b]furan]], the figure is 3200 nM; as for `NCc1ccc2c(c1)C1(CCN(C(=O)Cc3ccc(I)cc3)CC1)CO2` [Cpd 96, 1-(4-iodo-benzyl)carbonyl-5′-aminomethyl-spiro[piperidine-4,3′-(2H)-benzo[b]furan]], 450 nM; as for `NCc1ccc2c(c1)C1(CCN(C(=O)CCc3cccc(I)c3)CC1)CO2` [Cpd 97, 1-(3-iodo-phenethyl)carbonyl-5′-aminomethyl-spiro[piperidine-4,3′-(2H)-benzo[b]furan]], 1500 nM. As for `Cc1cccc(CCC(=O)N2CCC3(CC2)COc2ccc(CN)cc23)c1` [Cpd 98, 1-(3-methyl-phenethyl)carbonyl-5′-aminomethyl-spiro[piperidine-4,3′-(2H)-benzo[b]furan]], the figure is 1700 nM; as for `COc1cccc(CC(=O)N2CCC3(CC2)COc2ccc(CN)cc23)c1` [Cpd 99, 1-(3-methoxy-benzyl)carbonyl-5′-aminomethyl-spiro[piperidine-4,3′-(2H)-benzo[b]furan]], 580 nM; as for `NCc1ccc2c(c1)C1(CCN(C(=O)Cc3ccc4c(c3)OCO4)CC1)CO2` [Cpd 100, 1-benzodioxol-5-ylmethylcarbonyl-5′-aminomethyl-spiro[piperidine-4,3′-(2H)-benzo[b]furan]], 680 nM. For `COc1cccc(CCC(=O)N2CCC3(CC2)COc2ccc(CN)cc23)c1` [Cpd 101, 1-(3-methoxy-phenethyl)carbonyl-5′-aminomethyl-spiro[piperidine-4,3′-(2H)-benzo[b]furan]] the value was 2400 nM. Take `COc1ccc(CC(=O)N2CCC3(CC2)COc2ccc(CN)cc23)cc1C` [Cpd 102, 1-(3-methyl-4-methoxy-benzyl)carbonyl-5′-aminomethyl-spiro[piperidine-4,3′-(2H)-benzo[b]furan]]: 600 nM corresponded to half-maximal inhibition (IC50). `CSc1cccc(CC(=O)N2CCC3(CC2)COc2ccc(CN)cc23)c1` [Cpd 103, 1-(3-methylthio-benzyl)carbonyl-5′-aminomethyl-spiro[piperidine-4,3′-(2H)-benzo[b]furan]] gave a half-inhibitory concentration (IC50) of 960 nM. This IC50 lies about 1.6-fold higher than the previous one. The molecule `NCc1ccc2c(c1)C1(CCN(C(=O)CCc3ccc4c(c3)OCO4)CC1)CO2` [Cpd 104, 1-(benzodioxol-5-ylethyl)carbonyl-5′-aminomethyl-spiro[piperidine-4,3′-(2H)-benzo[b]furan]] yielded an IC50 of 4500 nM. Against the preceding molecule, the IC50 is about 4.7-fold higher. For `COc1ccc(CC(=O)N2CCC3(CC2)COc2ccc(CN)cc23)cc1OC` [Cpd 105, 1-(3,4-dimethoxy-benzyl)carbonyl-5′-aminomethyl-spiro[piperidine-4,3′-(2H)-benzo[b]furan]] the value was 770 nM. As for `COc1cc(CC(=O)N2CCC3(CC2)COc2ccc(CN)cc23)ccc1OCc1ccccc1` [Cpd 106, 1-(3-methoxy-4-benzyloxy-benzyl)carbonyl-5′-aminomethyl-spiro[piperidine-4,3′-(2H)-benzo[b]furan]], the figure is 610 nM.

In the case of `NCc1ccc2c(c1)C1(CCN(C(=O)c3ccc(CCc4ccccc4)o3)CC1)CO2` [Cpd 107, 1-(5-phenethyl-furan-2-yl)carbonyl-5′-aminomethyl-spiro[piperidine-4,3′-(2H)-benzo[b]furan]], it took 82 nM to reach half-maximal inhibition (IC50). This IC50 lies about 7.4-fold lower than the previous one. As for `NCc1ccc2c(c1)C1(CCN(C(=O)C#Cc3ccccc3)CC1)CO2` [Cpd 108, 1-(phenylethynyl)carbonyl-5′-aminomethyl-spiro[piperidine-4,3′-(2H)-benzo[b]furan]], the figure is 250 nM; as for `NCc1ccc2c(c1)C1(CCN(C(=O)/C=C/c3ccccc3)CC1)CO2` [Cpd 109, (E)-1-(phenylethenyl)carbonyl-5′-aminomethyl-spiro[piperidine-4,3′-(2H)-benzo[b]furan]], 210 nM; as for `NCc1ccc2c(c1)C1(CCN(C(=O)c3cc4ccccc4s3)CC1)CO2` [Cpd 110, 1-benzothien-2-ylcarbonyl-5′-aminomethyl-spiro[piperidine-4,3′-(2H)-benzo[b]furan]], 37 nM. As for `NCc1ccc2c(c1)C1(CCN(C(=O)/C=C/c3ccc(F)c(F)c3)CC1)CO2` [Cpd 111, (E)-1-(3,4-difluoro-phenylethenyl)carbonyl-5′-aminomethyl-spiro[piperidine-4,3′-(2H)-benzo[b]furan]], the figure is 190 nM; as for `NCc1ccc2c(c1)C1(CCN(C(=O)/C=C/c3ccccc3)CC1)CO2` [Cpd 112, (E)-1-(phenylethenyl)carbonyl-5′-aminomethyl-spiro[piperidine-4,3′-(2H)-benzo[b]furan]], 180 nM. As for `NCc1ccc2c(c1)C1(CCN(C(=O)/C=C/c3ccc4ccccc4c3)CC1)CO2` [Cpd 113, (E)-1-(naphthalene-2-ylethenyl)carbonyl-5′-aminomethyl-spiro[piperidine-4,3′-(2H)-benzo[b]furan]], the figure is 130 nM.
